The values below come from ChEMBL document CHEMBL1201862, “PubChem BioAssay data set” (2004).

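Five concentrations, 48 hours, 96-well plates. GI50 is the concentration that inhibits growth by half.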 Active and inactive are the calls of the source. No stated cut-off is given here; in the data, active = GI50 up to about 1.1 µM and inactive = higher. Bounds are passed on as bounds.

Test systems include TK-10; SW-620; NCI-H460; SNB-75; SF-539; U-251; OVCAR-4; ACHN; KM12; SK-OV-3; SNB-19; 786-0; OVCAR-8; SF-295; CCRF-CEM; RXF 393; MDA-MB-435; MDA-MB-231; PC-3; DU-145.
What all share (experiment): DTP human tumour cell line panel, 48 h

Broadly, the GI50 is the concentration that inhibits growth by half. For the compound `C1COCCSC2=C(SCCO1)SC(=C1SC3=C(SCCOCCOCCS3)S1)S2`, the GI50 in the test on TK-10 is > 100 µM (inactive); in the test on SW-620, > 100 µM (inactive); with NCI-H460, 96.4 µM (inactive); in the test with SNB-75, 21.7 µM (inactive); in the test on SF-539 it was 34.5 µM (inactive); in the test on U-251, 49.2 µM (inactive). Besides, the GI50 in the test on OVCAR-4 was 48.2 µM (inactive); with ACHN it was > 100 µM (inactive); in the test with KM12, > 100 µM (inactive); in the test with SK-OV-3, 72.1 µM (inactive); in the test with SNB-19, 73.8 µM (inactive); in the test with 786-0, 45.8 µM (inactive). Also, the GI50 in the test with OVCAR-8 is 53.5 µM (inactive); with SF-295, 50.9 µM (inactive); in the test on CCRF-CEM, > 100 µM (inactive); in the test on RXF 393 it was 32.8 µM (inactive).
Consider `CCOc1ccc(/N=C/c2c3ccccc3nc3ccccc23)cc1`, for which the GI50 in the test with TK-10 is 83 µM (inactive); in the test with SW-620 it was 31.3 µM (inactive); in the test with NCI-H460, 48.9 µM (inactive); in the test on SNB-75, 44.8 µM (inactive); in the test on SF-539, 65.6 µM (inactive); with U-251, > 100 µM (inactive). Moreover, the GI50 with OVCAR-4 is 70 µM (inactive); in the test on ACHN it was 62.1 µM (inactive); with KM12, 4.33 µM (inactive); with SK-OV-3, > 100 µM (inactive); in the test on SNB-19, 73.8 µM (inactive); with 786-0, 39.7 µM (inactive). Moreover, the GI50 with OVCAR-8 is 65.3 µM (inactive); with SF-295, 59.6 µM (inactive); in the test with CCRF-CEM, 3.59 µM (inactive); in the test with RXF 393 it was 46.2 µM (inactive).
For `CCCCCN(CCCCC)C(=O)[C@H](CCC(=O)O)NC(=O)c1cc2ccccc2[nH]1`, the GI50 is > 100 µM (inactive) in the test with TK-10; > 100 µM (inactive) with SW-620; 39.3 µM (inactive) with NCI-H460; 32.7 µM (inactive) in the test with SNB-75; 41.2 µM (inactive) in the test on SF-539; 35.7 µM (inactive) in the test on U-251. Besides, the GI50 is 61 µM (inactive) in the test on OVCAR-4; 49.2 µM (inactive) with ACHN; 50.4 µM (inactive) in the test with KM12; > 100 µM (inactive) in the test on SK-OV-3; 35.6 µM (inactive) in the test with SNB-19; 92.7 µM (inactive) with 786-0. In addition, the GI50 is 77.1 µM (inactive) with OVCAR-8, 57.8 µM (inactive) in the test with SF-295, 33.4 µM (inactive) in the test with CCRF-CEM and 33.3 µM (inactive) in the test with RXF 393.
On to `S=c1sc2c(S)nc(S)nc2n1-c1ccccc1`, for which the GI50 was > 100 µM (inactive) with TK-10; > 100 µM (inactive) with SW-620; > 100 µM (inactive) with NCI-H460; 69.8 µM (inactive) in the test with SNB-75; > 100 µM (inactive) in the test with SF-539; > 100 µM (inactive) in the test on U-251. Moreover, the GI50 in the test on OVCAR-4 is > 100 µM (inactive); in the test with ACHN, > 100 µM (inactive); in the test on KM12 it was 54.5 µM (inactive); in the test with SK-OV-3, > 100 µM (inactive); with SNB-19, > 100 µM (inactive); in the test with 786-0, > 100 µM (inactive). Besides, the GI50 was > 100 µM (inactive) in the test on OVCAR-8, > 100 µM (inactive) in the test on SF-295, 80.2 µM (inactive) in the test on CCRF-CEM and > 100 µM (inactive) in the test with RXF 393.
With `O=c1c2c(-c3ccccc3)onc2n(-c2ccccc2)c(=O)n1-c1ccccc1`, the GI50 is > 100 µM (inactive) in the test with MDA-MB-435; 14.5 µM (inactive) with TK-10; > 100 µM (inactive) with SW-620; 17.9 µM (inactive) in the test on NCI-H460; 27.8 µM (inactive) in the test with SNB-75; > 100 µM (inactive) with SF-539. In addition, the GI50 is > 100 µM (inactive) in the test with U-251; 32.8 µM (inactive) with OVCAR-4; > 100 µM (inactive) in the test on MDA-MB-231; 31.2 µM (inactive) in the test with ACHN; 17.9 µM (inactive) with KM12; > 100 µM (inactive) with SK-OV-3. The GI50 in the test with SNB-19 is 27.4 µM (inactive); in the test with 786-0, > 100 µM (inactive); in the test with OVCAR-8, 17.5 µM (inactive); in the test with PC-3 it was 18.6 µM (inactive); in the test with SF-295, > 100 µM (inactive); in the test on CCRF-CEM, > 100 µM (inactive). The GI50 in the test on RXF 393 is > 100 µM (inactive).
As for `O=C1NC2(NC(=O)C1=O)Nc1ccccc1S2`, the GI50 with TK-10 was > 100 µM (inactive); with SW-620, 12.9 µM (inactive); with NCI-H460 it was 51.5 µM (inactive); in the test with SNB-75 it was 68.7 µM (inactive); with SF-539 it was 27 µM (inactive); with U-251 it was 30.9 µM (inactive). Moreover, the GI50 is 40 µM (inactive) with OVCAR-4; 33.4 µM (inactive) in the test with ACHN; > 80.4 µM (inactive) in the test on KM12; > 100 µM (inactive) with SK-OV-3; > 100 µM (inactive) with SNB-19; 21.7 µM (inactive) in the test with 786-0. Also, the GI50 in the test on OVCAR-8 is 58.7 µM (inactive); in the test on SF-295, 38.6 µM (inactive); in the test with CCRF-CEM, 20.2 µM (inactive); with RXF 393 it was > 54.6 µM (inactive).
In the case of `CCN(CC)CCN(C(=O)C(C)(C)C)c1ccccc1N`, the GI50 in the test on TK-10, with SW-620, with NCI-H460, with SNB-75, with SF-539 and in the test with U-251 was > 100 µM (inactive) each time. Moreover, the GI50 with OVCAR-4, in the test on DU-145, in the test with ACHN, in the test with KM12, with SK-OV-3 and in the test on SNB-19 was > 100 µM (inactive) each time. For the same compound, the GI50 in the test with 786-0, in the test on OVCAR-8, in the test with PC-3, in the test with SF-295, in the test with CCRF-CEM and in the test on RXF 393 was > 100 µM (inactive) in each case.
`O=C(Nc1ccc(Br)c2ccccc12)c1ccc2ccccc2c1O`: the GI50 in the test with TK-10 is 3.19 µM (inactive); with SW-620, 2.26 µM (inactive); in the test with NCI-H460, 2.23 µM (inactive); with SNB-75 it was 2.3 µM (inactive); with SF-539, 5.16 µM (inactive); with U-251, 1.73 µM (inactive). Besides, the GI50 in the test with OVCAR-4 is 19.4 µM (inactive); with DU-145 it was 3.89 µM (inactive); with MDA-MB-231 it was 3.27 µM (inactive); in the test on ACHN it was 3.09 µM (inactive); with KM12, 2.9 µM (inactive); with SK-OV-3, 2.75 µM (inactive). Also, the GI50 with SNB-19 is 4.17 µM (inactive); in the test with 786-0, 3.94 µM (inactive); in the test with OVCAR-8, 3.86 µM (inactive); with PC-3, 1.35 µM (inactive); with SF-295, 2.05 µM (inactive); in the test with CCRF-CEM, 2.86 µM (inactive).
For the compound `O=C(Nn1c(-c2cccs2)nc2ccc(I)cc2c1=O)c1ccccc1`, the GI50 with MDA-MB-435 is 20.6 µM (inactive); in the test on TK-10 it was 30.3 µM (inactive); with SW-620, 71.6 µM (inactive); in the test on NCI-H460, 26.8 µM (inactive); in the test with U-251, 24.7 µM (inactive); in the test with OVCAR-4 it was 23 µM (inactive). In addition, the GI50 was 20.6 µM (inactive) in the test on DU-145; 30.7 µM (inactive) in the test with ACHN; 27.9 µM (inactive) with KM12; 21.3 µM (inactive) with SNB-19; 43.2 µM (inactive) with 786-0; 39 µM (inactive) with OVCAR-8. Besides, the GI50 with PC-3 is 33.9 µM (inactive); in the test on SF-295 it was 26.9 µM (inactive); with RXF 393, 35.4 µM (inactive).
`N#CCC(=O)Nc1ccccc1O`: the GI50 in the test with TK-10, with SW-620, in the test with NCI-H460, with SNB-75, with SF-539 and in the test with U-251 was > 100 µM (inactive) in each case. Further, the GI50 in the test with OVCAR-4, in the test on ACHN, in the test with KM12, in the test with SK-OV-3, with SNB-19 and in the test with 786-0 was > 100 µM (inactive) in each case. The GI50 in the test on OVCAR-8, in the test on SF-295, with CCRF-CEM and with RXF 393 was > 100 µM (inactive) throughout.
On to `O=C(Nc1ccc(Cl)cc1)NS(=O)(=O)c1c(-c2ccccc2)oc2ccccc2c1=O`, for which the GI50 was 75 µM (inactive) with MDA-MB-435; 23 µM (inactive) in the test with TK-10; > 100 µM (inactive) with SW-620; 47.4 µM (inactive) in the test on NCI-H460; > 100 µM (inactive) with SNB-75; 47.9 µM (inactive) in the test with SF-539. Further, the GI50 with U-251 was 58.2 µM (inactive); with OVCAR-4 it was > 100 µM (inactive); in the test on DU-145, 27.9 µM (inactive); with ACHN, 27.1 µM (inactive); in the test with KM12, 36.2 µM (inactive); with SK-OV-3, > 100 µM (inactive). In addition, the GI50 in the test on SNB-19 is > 100 µM (inactive); with 786-0 it was > 100 µM (inactive); in the test with OVCAR-8, 59.3 µM (inactive); with PC-3, 56.8 µM (inactive); in the test with SF-295 it was 36.2 µM (inactive); in the test on CCRF-CEM, 33.9 µM (inactive). Moreover, the GI50 in the test on RXF 393 is > 100 µM (inactive).
Consider `COC(=O)CCC(=O)c1ccc2c(c1)CC1(C2)Cc2ccc(C(=O)CCC(=O)OC)cc2C1`, for which the GI50 was > 100 µM (inactive) with MDA-MB-435; 82.6 µM (inactive) in the test with TK-10; < 0.01 µM (active) in the test on SNB-75; 67.5 µM (inactive) in the test with SF-539; 36.4 µM (inactive) in the test with U-251; 32.7 µM (inactive) in the test with OVCAR-4. For the same compound, the GI50 was 60.1 µM (inactive) in the test with MDA-MB-231; 25.8 µM (inactive) in the test on ACHN; > 100 µM (inactive) in the test on KM12; 67 µM (inactive) with SK-OV-3; 30.8 µM (inactive) with 786-0; 73.6 µM (inactive) in the test with OVCAR-8. Also, the GI50 in the test on PC-3 is 39.8 µM (inactive); in the test with SF-295, 53.8 µM (inactive); in the test on CCRF-CEM it was > 100 µM (inactive); in the test with RXF 393, > 100 µM (inactive).
